Experimental findings from US8633315B2, “Substituted hydroxyethyl amine compounds as beta-secretase modulators and methods of use” (Amgen Inc., priority 2007, dated 2014) are described below.

Like-named read-outs stand apart in the source and are kept apart here.

For data set [1], the system named is Cells stably expressing Amyloid Precursor Protein (APP). As to the kind of experiment: In vitro BACE cell-based assay (HEK cell assay): Aβ40 in conditioned medium by sandwich ELISA. The procedure, abridged: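 APP-stably-expressing cells were grown 24 h in DMEM/10% FBS, then treated for 24 h with 10-point doses starting at 100 μM or 10 μM, at 0.1% DMSO final. Aβ40 in conditioned medium was measured by sandwich ELISA (pAb40 capture, biotinylated 6E10 detection, europium time-resolved fluorescence); IC50 from percent inhibition.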
(In an ELISA, binding on a coated surface is turned into a signal by an enzyme label.)

The test system of data set [2] is Abeta peptide. As to the kind of experiment: In vivo inhibition of beta-secretase: Abeta peptide in CSF and brain after oral dosing. To be noted: orally dosed at about 30 mg/kg; for inhibition in vivo at 30 mg/kg: Rattus norvegicus, po, CSF, read-out: reduction of Abeta peptide in the CSF of the rat. An excerpt:
In Vivo Inhibition of Beta-Secretase
Several animal models, including mouse, rat, dog, and monkey, may be used to screen for inhibition of beta-secretase activity in vivo following administration of a test compound sample. Animals used in this invention can be wild type, transgenic, or gene knockout animals. For example, the Tg2576 mouse model, prepared and conducted as described in Hsiao et al., 1996, Science 274, 99-102, and other non-transgenic or gene knockout animals are useful to analyze in vivo inhibition of Amyloid beta peptide (Abeta) production in the presence of inhibitory test compounds. Generally, 2 to 18 month old Tg2576 mice, gene knockout mice or non-transgenic animals are administered test compounds formulated in vehicles, such as cyclodextran, phosphate buffers, hydroxypropyl methylcellulose or other suitable vehicles. […] A separate group of animals receive 2% hydroxypropyl methylcellulose, 1% Tween80 alone, containing no test compound, and serve as a vehicle-control group. At the end of the test period, animals are sacrificed and brain tissues, plasma or cerebrospinal fluid are collected. Brains are either homogenized in 10 volumes (w/v) of 0.2% diethylamine (DEA) in 50 mM NaCl (Best et al., 2005, Journal of Pharmacology and Experimental Therapeutics, 313, 902-908), or in 10 volumes of 0.5% TritonX-100 in Tris-buffered saline (pH at about 7.6). Homogenates are centrifuged at 355,000 g, 4° C. for 30 minutes. CSF or brain supernatants are then analyzed for the presence of Abeta peptide by specific sandwich ELISA assays based on ECL (Electrochemiluminescence) technology. For example, rat Abeta40 is measured using biotinylated-4G8 (Signet) as a capture antibody and Fab40 (an in-house antibody specific to the C-terminal of Abeta40) as a detection antibody. For example, 4 hours after administration of 30 mg/kg oral dose of the test compound in 2% hydroxypropyl methylcellulose, 1% Tween80 (pH2.2) to 200 g male Sprague Dawley rats, Abeta peptide levels are measured for reduction by X % and Y % in cerebrospinal fluid and brain, respectively, when compared to the levels measured in the vehicle-treated or control […].
Actual vehicles used: Oral: 2% HPMC, 1% Tween80, pH 2.2
• IV: 5% EtOH, 45% Propylene glycol in 5% Dextrose

Data set [3] addresses BACE1 (Homo sapiens, UniProt P56817). As to the kind of experiment: In vitro enzymatic BACE FRET (fluorescence resonance energy transfer) assay. The data set is classed as biochemical. The method, boiled down: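 Cleavage of a quenched peptide FRET substrate (50 nM) in 0.05 M acetate pH 4.2, 10% DMSO, 100 uM genapol, 1 h incubation. Reaction stopped by Tris neutralization; fluorescence read at excitation 488 nm / […].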

Data set [4] is described as follows: Microsomal stability assay, human liver microsomes. The data set is classed as in vitro ADME. The text has this:
(§1) Microsomal Stability Assay
For orientation: Liver microsomes are vesicles of endoplasmic reticulum, rich in cytochrome P450 enzymes.

A short description of data set [5]: Microsomal stability assay, rat liver microsomes. It counts as in vitro ADME.
From the text: as §1

In data set [6] the target is CYP3A (Homo sapiens, UniProt P08684). As to the kind of experiment: CYP3A inhibition assay (midazolam, pooled human liver microsomes). The data set is classed as in vitro ADME. The settings on record: microsomes.
CYP3A, sequence (P08684 2-503): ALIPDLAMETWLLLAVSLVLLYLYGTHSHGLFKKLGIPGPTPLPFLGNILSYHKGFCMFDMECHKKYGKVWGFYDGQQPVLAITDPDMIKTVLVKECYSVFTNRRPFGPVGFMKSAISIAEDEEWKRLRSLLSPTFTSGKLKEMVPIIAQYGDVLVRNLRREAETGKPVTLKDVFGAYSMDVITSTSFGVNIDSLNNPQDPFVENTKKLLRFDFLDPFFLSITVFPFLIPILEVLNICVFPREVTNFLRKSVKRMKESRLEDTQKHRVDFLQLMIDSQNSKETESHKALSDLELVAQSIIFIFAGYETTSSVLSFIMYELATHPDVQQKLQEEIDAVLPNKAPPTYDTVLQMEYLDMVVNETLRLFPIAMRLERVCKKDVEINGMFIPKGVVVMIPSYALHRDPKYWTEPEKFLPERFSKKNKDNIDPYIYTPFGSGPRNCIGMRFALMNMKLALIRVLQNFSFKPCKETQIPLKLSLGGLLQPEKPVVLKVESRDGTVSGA
The mark [7] stands for this setting: Homo sapiens, HEK293, 24 h, Aβ40 in conditioned medium after 24 h incubation.

BACE1, sequence (P56817 46-501, species assumed): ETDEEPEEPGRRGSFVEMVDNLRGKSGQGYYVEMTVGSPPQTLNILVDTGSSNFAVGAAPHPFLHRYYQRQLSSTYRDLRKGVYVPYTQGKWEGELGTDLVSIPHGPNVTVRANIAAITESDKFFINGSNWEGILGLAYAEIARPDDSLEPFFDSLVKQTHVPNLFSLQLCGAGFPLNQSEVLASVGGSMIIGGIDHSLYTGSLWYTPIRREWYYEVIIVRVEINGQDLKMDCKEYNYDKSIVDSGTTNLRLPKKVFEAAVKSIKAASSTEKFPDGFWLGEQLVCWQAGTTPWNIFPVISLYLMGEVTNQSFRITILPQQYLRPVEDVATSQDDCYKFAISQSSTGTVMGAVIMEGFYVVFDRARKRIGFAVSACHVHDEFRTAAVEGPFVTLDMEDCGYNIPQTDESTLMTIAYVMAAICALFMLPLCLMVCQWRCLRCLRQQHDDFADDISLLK

Regarding `CC#CCC(NC(=O)C1CCC(=O)O1)C(O)CNC1CC2(CCC2)Oc2ncc(CC(C)(C)C)cc21` [Example 88, (S)-N((2R,3S)-1((S)-2,2-spirocyclobutane-6-neopentyl-3′,4′-dihydro-2H-pyrano[2,3-b]pyridin]-4′-ylamino)-2-hydroxyhept-5-yn-3-yl)-5-oxo-tetrahydrofuran-2-carboxamide.], the IC50 was 72 nM in data set [1] (setting [7]) and 20 nM in data set [3]. Moreover, the inhibition in vivo at 30 mg/kg in data set [2] is not below 5%.

Regarding `C=CC[C@H](NC(=O)COC)[C@H](O)CN[C@H]1CC2(CCC2)Oc2c1cc(CC(C)(C)C)nc2NC` [Example 47, N-((1S)-1-((1R)-2-(((4′S)-6′-(2,2-dimethylpropyl)-8′-(methylamino)-3′,4′-dihydrospiro[cyclobutane-1,2′-pyrano[2,3-c]pyridin]-4′-yl)amino)-1-hydroxyethyl)-3-buten-1-yl)-2-(methyloxy)acetamide], the IC50 amounted to 38 nM in data set [1] (setting [7]) and 164 nM in data set [3]. In addition, in data set [2] (brain), the “reduction of Abeta peptide in the brain of the rat” value is on record as approximately 25%.

Turning to `C=CCC(NC(=O)COC)C(O)CNC1CC2(CC(O)C2)Oc2ncc(CC(C)(C)C)cc21` [Example 107, N-((1S)-1-((1R)-2-(((1s,3S,4′S)-6′-(2,2-dimethylpropyl)-3-hydroxy-3′,4′-dihydrospiro[cyclobutane-1,2′-pyrano[2,3-b]pyridin]-4′-yl)amino)-1-hydroxyethyl)-3-buten-1-yl)-2-(methyloxy)acetamide], the figures for the IC50 in data set [1] (setting [7]) and in data set [3] were 35 nM and 16 nM, respectively. The inhibition in vivo at 30 mg/kg in data set [2] is not below 5%.

Take `CC#CC[C@H](NC(=O)[C@@H](C)OC)[C@H](O)CN[C@H]1CC2(CCC2)Oc2ncc(CC(C)(C)C)cc21` [Example 87, (2R)-N-((1S)-1-((1R)-2-(((4′S)-6′-(2,2-dimethylpropyl)-3′,4′-dihydrospiro[cyclobutane-1,2′-pyrano[2,3-b]pyridin]-4′-yl)amino)-1-hydroxyethyl)-3-pentyn-1-yl)-2-(methyloxy)propanamide]: the IC50 came to 185 nM in data set [1] (setting [7]) and 109 nM in data set [3]. Moreover, the inhibition in vivo at 30 mg/kg in data set [2] was not below 5%.

Turning to `C=CC[C@H](NC(C)=O)[C@H](O)CN[C@H]1CC2(CCC2)Oc2c1cc(CC(C)(C)C)nc2NC` [Example 44, N-((1S)-1-((1R)-2-(((4′S)-6′-(2,2-dimethylpropyl)-8′-(methylamino)-3′,4′-dihydrospiro[cyclobutane-1,2′-pyrano[2,3-c]pyridin]-4′-yl)amino)-1-hydroxyethyl)-3-buten-1-yl)acetamide], the IC50 in data set [1] (setting [7]) was determined as 20 nM; in data set [3] it was 65 nM. Also, the inhibition in vivo at 30 mg/kg in data set [2] is not below 5%.

On to `C=CC[C@H](NC(=O)CCOC)[C@H](O)CN[C@H]1CC2(CCC2)Oc2ncc(CC(C)(C)C)cc21` [Example 91, N-((1S)-1-((1R)-2-(((4′S)-6′-(2,2-dimethylpropyl)-3′,4′-dihydrospiro[cyclobutane-1,2′-pyrano[2,3-b]pyridin]-4′-yl)amino)-1-hydroxyethyl)-3-buten-1-yl)-3-(methyloxy)propanamide], for which, in data set [2], the inhibition in vivo at 30 mg/kg was not below 5%. In addition, in data set [3], the IC50 is 68 nM.

On to `C=CC[C@H](NC(=O)CF)[C@H](O)CN[C@H]1CC2(CCC2)Oc2ncc(CC(C)(C)C)cc21` [Example 90, N-((1S)-1-((1R)-2-(((4′S)-6′-(2,2-dimethylpropyl)-3′,4′-dihydrospiro[cyclobutane-1,2′-pyrano[2,3-b]pyridin]-4′-yl)amino)-1-hydroxyethyl)-3-buten-1-yl)-2-fluoroacetamide], for which the inhibition in vivo at 30 mg/kg in data set [2] was not below 5%. In addition, in data set [3], the IC50 came to 68 nM.

For the compound `CC#CC[C@H](NC(=O)COC)[C@H](O)CN[C@H]1CC2(CCC2)Oc2ncc(CC(C)(C)C)cc21` [Example 89, N-((1S)-1-((1R)-2-(((4′S)-6′-(2,2-dimethylpropyl)-3′,4′-dihydrospiro[cyclobutane-1,2′-pyrano[2,3-b]pyridin]-4′-yl)amino)-1-hydroxyethyl)-3-pentyn-1-yl)-2-(methyloxy)acetamide], the IC50 in data set [1] (setting [7]) is 132 nM; in data set [3], 71 nM. In addition, the inhibition in vivo at 30 mg/kg in data set [2] is not below 5%.

In data set [4], “N-((1S)-1-((1R)-2-(((4′S)-6′-(2,2-dimethylpropyl)-8′-(1-methyl-1H-imidazol-2-yl)-3′,4′-dihydrospiro[cyclobutane-1,2′-pyrano[2,3-c]pyridin]-4′-yl)amino)-1-hydroxyethyl)-3-buten-1-yl)-2-methoxyacetamide [Example 239]” displayed an HLM of 311 µL/min/mg. Further, the RLM in data set [5] amounted to 340 µL/min/mg. For the same compound, the IC50 was determined as 1500 nM in data set [1], 1100 nM in data set [6] and 208 nM in data set [3] (read-out: BACE 1 FRET assay).
